Measured values reported in US5574057A, “Naamidine A extracted from sea sponges and methods for its use as an anti-tumor agent” (priority 1994, dated 1996).
“Also recorded” adds a separate entry of the source.

Columns and labels:
[1] = test system: EGF-induced mitogenesis in EC25 cells (NIH3T3 cells transfected with the EGF receptor gene); test: EGF mitogenic assay (3H-thymidine incorporation), EGF stimulation; assay type: cell-based, human
Source text: The assay to determine a compound's selectivity compares the level of inhibition of the targeted activity (EGF stimulation of cell growth) with the inhibition of insulin stimulated cell growth.
(§1) An in vitro bioassay, called the EGF mitogenic assay, was used to aid in the identification of antagonists of EGF dependent cell proliferation. The mitogenic response due to EGF is quantified by measuring the incorporation of ^3 H-thymidine into NIH3T3 cells (or "EC25 cells") that have been transfected with the EGF receptor gene. Stimulation of these cells with insulin is used as a "nonspecific" mitogen control. Samples were preincubated with the EC25 cells for one hour before the addition of the mitogen, then further incubated for 16 hours, and mitogenic stimulation assessed by a one hour incorporation of ^3 H-thymidine. The development of the EC25 cell line, and the EGF mitogenic assay in which it is used, is explained in greater detail in Velu, T. J. et al., "Epidermal Growth Factor-Dependent Transformation by a Human EGF Receptor Proto-Oncogene, " Science 238:1408-10 (1987).
(§2) The concentration at which control insulin stimulation is inhibited 50% by the test sample (IC50(insutin)) was calculated as was the same value for EGF (IC50(EGF)). These values were then used to calculate a specificity ratio which is IC50(insulin)/ IC50(EGF).
These activity criteria help determine which inhibitors are specific for the EGF signalling pathway.

[2] = test system: insulin stimulation of EC25 cells; test: EGF mitogenic assay (3H-thymidine incorporation), insulin stimulation as nonspecific mitogen control; assay type: cell-based; conditions: pure sample
Experimental: as §1, §2

[3] = test system: EGF receptor; test: competition with binding of biotinylated EGF to A431 cells; set-up: species or system human; conditions: up to 500 μg/ml
Experimental: Experimental Test 4. Presently, the mechanism of action of naamidine A for inhibition of the EGF signalling pathway is unknown. […] This assay measured the ability of naamidine A to compete with the binding of biotinylated EGF to the EGF receptor, which is highly over expressed in A431 human squamous cell carcinoma cells.
In the assay represented in FIG. 3, the A431 cells were incubated in the presence of either the EGF standard or naamidine A plus biotinylated EGF for one hour and the degree of inhibition of biotinylated EGF binding to the EGF receptor was quantified using a peroxidase-linked anti-biotin antibody. The solid circles (.circle-solid.) in FIG. 3 represent the level of binding of EGF to cell receptors when the cells are subjected to various levels of naamidine A. The open circles (.largecircle.) represent the level of binding of EGF to cell receptors when the cells are subjected to various levels of EGF, which is used as a positive control.

[4] = biological target: c-src tyrosine kinase (Homo sapiens, UniProt P12931); test: c-src tyrosine kinase assay (phosphorylation of RCM lysozyme); assay type: biochemical; conditions: isolated c-src, RCM lysozyme substrate, 30 minutes
Experimental: Experimental Test 5. […] In this assay, phosphorylation of the substrate RCM (reduced, carboxyamidomethylated and maleylated) lysozyme by c-src is quantified using a peroxidase-linked anti-phosphotyrosine antibody to determine the activity of this kinase.
The sample of naamidine A was incubated with the substrate RCM […], c-src enzyme, and ATP for 30 minutes, after which time the reaction was terminated and tyrosine phosphorylation was assessed using a peroxidase-linked antiphosphotyrosine antibody.

[5] = test system: human squamous cell carcinoma (A431); test: first in vivo test, A431 xenograft in athymic mice, assessed 15 days after implantation (Experimental Test 7); set-up: species or system human tumor in athymic mice; conditions: for % Inhibition of tumor growth: q1d×5;1, 15 days; for toxicity: 100 mg/kg
Experimental: Tumor growth was assessed by measuring the change in tumor size over a fifteen day period. Although naamidine A inhibited tumor growth, the inhibition was a modest 37%. Therefore, a second evaluation was carried out using a different schedule of treatment and evaluation.
J. Oncology, 1:293-298 (1992).
Tumor growth was calculated as FTS/ITS. […] Experimental Test 7.
The effect of naamidine A on the tumor was assessed 15 days after tumor implantation and there were six mice per treatment group.

[6] = test system: HCT116 colon cells
Experimental: In the XTT assay, cells are plated at 4000 cells/well in 96 well microtiter plates; 24 hours later the test drugs are added and serially diluted. The cells are incubated at 37° C. for 72 hours, at which time the tetrazolium dye, XTT, is added. A dehydrogenase enzyme in live cells reduces the XTT to a form that absorbs light at 450 nm which can be quantitated spectrophotometrically. The greater the absorbance the greater the number of live cells. The results are expressed as an IC50 which is the drug concentration required to inhibit cell proliferation (i.e., absorbance at 450 nm) to 50% of that of untreated control cells.

[7] = test system: human squamous cell carcinoma (A431); test: second in vivo test, A431 xenograft in athymic mice, assessed 7 days after implantation (Experimental Test 8); conditions: for % Inhibition of tumor growth: q1d×5;1, 7 days; for deaths: q1d×5;1, six mice per group
Experimental: In this test, the mice were treated with varying dosages of naamidine A for five days after implantation of the carcinoma. The tumors were then evaluated for growth activity seven days after implantation, as determined by the change in tumor size.
The model system used for these in vivo studies was a human squamous cell carcinoma (A431) that over expresses the EGF receptor, which was implanted into athymic mice.
According to Robinson et al., the A431 cell line was adapted to grow in female athymic mice by s.c. inoculation of 10^7 cultured cells into the axillary region. Tumors were passaged in female athymic mice by sterile dissection of solid tumors and s.c. implantation of tumor fragments into the axillary region.
Drug effects were calculated as the mean % inhibition the drug treatment produced on tumor growth when compared to control. Inhibition of >80% of tumor growth was considered a working criteria for "active".
In this second in vivo test, the length of time for tumor growth was shortened to seven days to more closely coincide with the time of drug treatment. Two groups of twelve mice each were treated with the standard antibody (MA225), while there were six mice per group treated with varying doses of naamidine A.
The tumor was exposed to the test agent (naamidine A) once a day for 5 days (q1 d×5; 1), which was nearly the entire length of the growth period of 7 days. During this time, the tumor would normally be expected to double about 1.5 times instead of 3 times for a 15 day period.
Under these conditions, doses ranging from 0.78 mg/kg to 50 mg/kg were given using the same dosing schedule as with the first experiment.

[8] = 25 mg/kg, listed as Naamidine A

naamidine A
activity in the EGF assay (in words) ([1]; EC25 cells): very good activity | IC50(EGF) ([1]; EC25 cells, EGF stimulation, pure sample): 4.8 µg/mL | IC50(insulin)/IC50(EGF) ratio ([1]; EC25 cells, specificity ratio): 22 | specificity for EGF versus insulin stimulated response (in words) ([1]; tritiated thymidine incorporation after EGF or insulin stimulation): less potent in inhibiting insulin stimulated cell proliferation compared to EGF stimulated growth; also recorded: more specific for the EGF mediated mitogenic response than for the insulin mediated mitogenic response | selectivity in inhibiting EGF dependent growth relative to insulin dependent growth ([1]; tritiated thymidine incorporation, preliminary testing): about 22 times | IC50(insulin) [2]: 105.6 µg/mL | effect on binding of EGF to its receptor [3]: does not appear to affect the binding of EGF to its corresponding receptor cite; also recorded: did not appear to effect the binding of EGF to receptor sites | inhibition of c-src tyrosine kinase activity (in words) [4]: lack of c-src tyrosine kinase activity; also recorded: not inhibit the activity of the isolated c-src tyrosine kinase; also recorded: no significant inhibition of c-src tyrosine kinase activity | % Inhibition of tumor growth ([5]; 1.6 mg/kg): 36.6% | % Inhibition of tumor growth ([5]; 6.25 mg/kg): 32.2% | % Inhibition of tumor growth ([5]; 25 mg/kg): 37% | % Inhibition of tumor growth [5, 8]: 37.1% | net reduction in tumor cell growth ([5]; first in vivo test, 15 days, includes period of regrowth): 30-40% | toxicity ([5]; mice, q1d×5;1): toxic to the mice | toxicity ([5]; mice, q1d×5;1, listed as Naamidine A): toxic (multiple deaths) | maximally tolerated dose ([5]; mice, q1d×5;1, 21600 min): 25 mg/kg | general in vitro cytotoxicity (in words) [6]: relatively low general in vitro cytotoxicity | IC50 ([6]; HCT116, XTT, 72 hours): 31 µg/mL | % Inhibition of tumor growth ([7]; 1.56 mg/kg): 47.9% | % Inhibition of tumor growth ([7]; 3.13 mg/kg): 35% | % Inhibition of tumor growth ([7]; 6.25 mg/kg): -7.5% | % Inhibition of tumor growth ([7]; 12.5 mg/kg): 52% | % Inhibition of tumor growth ([7]; 25 mg/kg): at least 85% | % Inhibition of tumor growth [7, 8]: 87.4% | % Inhibition of tumor growth ([7]; 50 mg/kg): 96.4% | deaths (in words) ([7]; mice, 25 mg/kg): death of one mouse | deaths ([7]; mice, 25 mg/kg): 1 death | toxicity (in words) ([7]; mice, 50 mg/kg): toxic to many of the mice | deaths ([7]; mice, 50 mg/kg): 2 deaths | maximal tolerated dose ([7]; mice, q1d×5;1, 10080 min): 25 mg/kg | LD-10 (dose at which 10% of the mice died) ([7]; mice, q1d×5;1, roughly estimated from Experimental Test 8): about 25 mg/kg | Tumor growth inhibition ([7]; somewhat toxic doses, 7 days, best results at about 25 mg/kg): about 85%
